Measurements published in patent publication US5563169A, “Tricyclic heterocyclic compound” (Sankyo Company, Limited, priority 1991, dated 1996).

Tested on: acyl-CoA: cholesterol acyltransferase (ACAT)
Test: ACAT inhibiting effect in vitro (rat liver microsome, method of Ross et al.)
Format: biochemical
Details: rat liver microsome (Sprague-Dawley) enzyme fraction, 100 μM [14C]oleoyl-CoA, 37° C., 4 minutes; stated in words only
Procedure: ACAT inhibiting activities were determined according to the improved test method in vitro reported by Ross et al. [A. C. Ross etal., J. Biol. Chem., 259, 815-819(1984)].
According to the procedure described in A. C. Ross et al., J. Biol. Chem., 257, 2453-2459(1982), rat liver microsome was prepared from a rat of Sprague-Dawley strain fasted overnight to make an enzyme fraction. To a 0.15M potassium phosphate buffer solution (pH 7.4) containing 100 μM of [14C]oleoyl-CoA, 2 mM of dithiothreitol and 80 μM of bovine serum albumin were added 60-100 μg of the microsome fraction, and a 5 μl solution of a test compound in dimethylsulfoxide (2.5% v/v) was added to the above phosphate buffer solution to make 200 μl. The mixture was warmed at 37° C. for 4 minutes and then the enzyme reaction was stopped by adding 1 ml of ethanol under stirring. To the reaction mixture were added 2 ml of hexane. After stirring, 1 ml of a hexane solution was taken out and the solvent was evaporated in a stream of nitrogen. Cholesteryl oleate resulted from the enzyme reaction was separated by thin layer chromatography through silica gel using a 85:15:1 mixture of hexane, diethyl ether and acetic acid as a developing solvent. An ACAT activity was determined by measuring radioactivity and a inhibiting rate (%) was calculated by comparing a control activity with that of the test compound at given concentrations.

## CC(C)c1cccc(C(C)C)c1NC(=O)CC1c2ccccc2Oc2ccccc21 [Example 1, N-[2,6-Bis (1-methylethyl)phenyl]-2-(9H-xanthen-9-yl)acetamide]
  ACAT inhibiting activity: excellent inhibiting activity

## CCc1cccc(CC)c1NC(=O)CC1c2ccccc2Oc2ccccc21 [Example 2, N-(2,6-Diethylphenyl)-2-(9H-xanthen-9-yl)acetamide]
  ACAT inhibiting activity: excellent inhibiting activity

## CCc1cccc(CSC)c1NC(=O)CC1c2ccccc2Oc2ccccc21 [Example 3, N-(2-Ethyl-6-methylthiomethylphenyl)-2-(9H-xanthen-9-yl)acetamide]
  ACAT inhibiting activity: excellent inhibiting activity

## CCc1cccc(SC)c1NC(=O)CC1c2ccccc2Oc2ccccc21 [Example 9, N-(2-Ethyl-6-methylthiophenyl)-2-(9H-xanthen-9-yl)acetamide]
  ACAT inhibiting activity: excellent inhibiting activity

## CCc1cccc(SC(C)C)c1NC(=O)CC1c2ccccc2Oc2ccccc21 [Example 10, N-(2-Ethyl-6-isopropylthiophenyl)-2-(9H-xanthen-9-yl)acetamide]
  ACAT inhibiting activity: excellent inhibiting activity

## CCc1cccc(Sc2ccccc2)c1NC(=O)CC1c2ccccc2Oc2ccccc21 [Example 11, N-(2- Ethyl-6-phenylthiophenyl)-2-(9H-xanthen-9-yl)acetamide]
  ACAT inhibiting activity: excellent inhibiting activity

## CC(C)c1cccc(C(C)C)c1NC(=O)C(C)C1c2ccccc2Oc2ccccc21 (stereo not drawn) [Example 16, N-[2,6-Bis(1-methylethyl)phenyl]-2-(9H-xanthen-9-yl)propanamide]
  ACAT inhibiting activity: excellent inhibiting activity

## CC(C)c1cccc(C(C)C)c1NC(=O)CC1(C)c2ccccc2Oc2ccccc21 [Example 18-B, N-[2,6-bis(1-methylethyl)phenyl]-2-(9-methyl-9H-xanthen-9-yl)acetamide]
  ACAT inhibiting activity: excellent inhibiting activity

## CCc1cccc(OC(C)C)c1NC(=O)CC1c2ccccc2Oc2ccccc21 [Example 25, N-(2-Ethyl-6-isopropoxyphenyl)-2-(9H-xanthen-9-yl)acetamide]
  ACAT inhibiting activity: excellent inhibiting activity
